From patent publication US20120232070A1, “Use of Indole Derivatives as Nurr-1 Activators for the Application Thereof as a Medicament for the Treatment of Parkinson's Disease” (Laboratoires Fournier SA, priority 2009, published 2012)

Columns and labels:
[1] = target: hNurr1_RXRγFL (NURR1/RXRγ heterodimer) (Homo sapiens, UniProt P43354+P48443); assay: Transactivation assay in Cos-7 cells, NURR-1-Gal4 / RXRγ, luciferase reporter; assay type: cell-based; details: for Emax: COS-7, read-out: hNurr1_RXRγFL Eff (%), efficacy in % relative to the reference XCT0135908 at 2·10^−5 M (=100%); for EC50: Cos-7 cells, overnight incubation
In short: (§1)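 Cos-7 cells co-transfected with human NURR-1-Gal4 chimera, human RXRα or RXRγ, and 5Gal4pGL3-TK-Luc reporter; compounds added at 10^−4 to 3·10^−10 M final, overnight incubation, luciferase read. Induction over each heterodimer's baseline expressed as % of reference RXR agonist XCT0135908 (2·10^−5 M) taken as 100%.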

[2] = target: hNurr1_RXRαFL (NURR1/RXRα heterodimer) (Homo sapiens, UniProt P19793+P43354); assay: Transactivation assay in Cos-7 cells, NURR-1-Gal4 / RXRα, luciferase reporter; assay type: cell-based; details: for Emax: COS-7, read-out: hNurr1_RXRαFL Eff (%), efficacy in % relative to the reference XCT0135908 at 2·10^−5 M (=100%); for EC50: Cos-7 cells, overnight incubation
In short: as §1

Sequence of hNurr1_RXRαFL (NURR1/RXRα heterodimer) (P19793 whole entry, the tested form may be a part): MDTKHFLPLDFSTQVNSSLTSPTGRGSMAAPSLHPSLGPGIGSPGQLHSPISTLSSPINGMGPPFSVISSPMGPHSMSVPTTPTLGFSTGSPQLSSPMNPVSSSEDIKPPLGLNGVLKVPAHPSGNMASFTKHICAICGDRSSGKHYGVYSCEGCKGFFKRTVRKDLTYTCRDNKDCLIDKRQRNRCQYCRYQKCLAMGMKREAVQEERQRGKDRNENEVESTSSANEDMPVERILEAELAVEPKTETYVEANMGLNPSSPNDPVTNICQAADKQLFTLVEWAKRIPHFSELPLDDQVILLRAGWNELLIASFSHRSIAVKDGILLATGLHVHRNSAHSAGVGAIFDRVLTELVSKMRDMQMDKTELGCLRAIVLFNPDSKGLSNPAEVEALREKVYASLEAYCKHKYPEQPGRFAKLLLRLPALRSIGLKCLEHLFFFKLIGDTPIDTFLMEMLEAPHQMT
Sequence of hNurr1_RXRαFL (NURR1/RXRα heterodimer) (P43354 328-598): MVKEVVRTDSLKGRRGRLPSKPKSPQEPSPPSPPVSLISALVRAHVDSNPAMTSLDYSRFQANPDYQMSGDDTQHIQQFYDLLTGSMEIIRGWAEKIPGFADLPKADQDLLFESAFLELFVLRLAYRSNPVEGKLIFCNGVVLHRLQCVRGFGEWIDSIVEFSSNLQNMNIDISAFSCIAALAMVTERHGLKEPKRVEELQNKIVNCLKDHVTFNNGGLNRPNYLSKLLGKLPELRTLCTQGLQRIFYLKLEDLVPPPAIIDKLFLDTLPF
Sequence of hNurr1_RXRγFL (NURR1/RXRγ heterodimer) (P43354 328-598): as above
Sequence of hNurr1_RXRγFL (NURR1/RXRγ heterodimer) (P48443 whole entry, the tested form may be a part): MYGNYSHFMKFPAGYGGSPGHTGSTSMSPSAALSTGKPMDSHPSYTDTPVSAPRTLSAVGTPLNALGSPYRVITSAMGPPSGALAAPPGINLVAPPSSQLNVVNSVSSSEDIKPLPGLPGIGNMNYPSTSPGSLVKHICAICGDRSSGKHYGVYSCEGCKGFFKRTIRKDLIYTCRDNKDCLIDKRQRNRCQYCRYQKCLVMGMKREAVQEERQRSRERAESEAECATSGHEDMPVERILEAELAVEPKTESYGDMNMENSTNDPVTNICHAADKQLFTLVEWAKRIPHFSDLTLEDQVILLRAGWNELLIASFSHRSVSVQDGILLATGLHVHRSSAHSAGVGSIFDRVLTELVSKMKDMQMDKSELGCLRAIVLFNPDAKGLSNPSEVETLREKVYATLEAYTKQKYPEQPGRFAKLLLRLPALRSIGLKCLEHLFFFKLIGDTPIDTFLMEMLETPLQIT

| SMILES | Emax [1] | EC50 [1] | Emax [2] | EC50 [2] |
| --- | --- | --- | --- | --- |
| CC(C)(C)c1cccc(S(=O)(=O)n2c(Cc3ccc(S(N)(=O)=O)cc3)cc3cc(C(F)(F)F)ccc32)c1 [Example 198, 4-[[1-[[3-(1,1-dimethylethyl)-phenyl]sulfonyl]-5-trifluoromethyl-1H-indol-2-yl]methyl]-benzenesulfonamide] | 86% | > 10000 nM | 84% | 7940 nM |
| Cc1cc(S(=O)(=O)n2c(Cc3ccc(C(=O)O)cc3)cc3cc(C(F)(F)F)ccc32)ccc1Cl [Example 121, 4-[[1-[4-chloro-3-methyl-phenylsulfonyl]-5-(trifluoromethyl)-1H-indol-2-yl]methyl]benzoic acid] | 56% | 433 nM | 65% | 192 nM |
| O=C(O)c1ccc(Cc2cc3cc(Cl)ccc3n2S(=O)(=O)c2ccc3c(c2)OCCO3)s1 [Example 77, 5-[[5-chloro-1-[(2,3-dihydro-benzo[1,4]dioxin-6-yl)sulfonyl]-1H-indol-2-yl]methyl]-thiophene-2-carboxylic acid] | 38% | 457 nM | 74% | 224 nM |
| CCc1ccc(S(=O)(=O)n2c(Cc3ccc(C(=O)O)cc3)cc3cc(C(F)(F)F)ccc32)cc1 [Example 133, 4-[[1-[4-ethyl-phenylsulfonyl]-5-(trifluoromethyl)-1H-indol-2-yl]methyl]benzoic acid] | 38% | 304 nM | 49% | 177 nM |
| CC(C)(C)c1cccc(S(=O)(=O)n2c(C(F)c3ccc(C(=O)O)cc3)cc3cc(C(F)(F)F)ccc32)c1 (centres unmarked) [Example 217, 4-[[1-[[3-(1,1-dimethylethyl)phenyl]sulfonyl]-5-(trifluoromethyl)-1H-indol-2-yl]fluoromethyl]benzoic acid] | 80% | 355 nM | 83% | 149 nM |
| CC(C)(C)c1cccc(S(=O)(=O)n2c(Cc3ccc(F)c(C(=O)O)c3)cc3cc(C(F)(F)F)ccc32)c1 [Example 210, 3-[[1-[[3-(1,1-dimethylethyl)-phenyl]sulfonyl]-5-trifluoromethyl-1H-indol-2-yl]methyl]-6-fluorobenzoic acid] | 68% | 81 nM | 70% | 69 nM |
| Cc1cccc(S(=O)(=O)n2c(Cc3ccc(C(=O)O)cc3)cc3cc(C(F)(F)F)ccc32)c1 [Example 141, 4-[[1-[(3-methylphenyl)sulfonyl]-5-(trifluoromethyl)-1H-indol-2-yl]methyl]benzoic acid] | 30% | 364 nM | 41% | 285 nM |
| CC(C)c1ccc(S(=O)(=O)n2c(Cc3ccc(C(=O)O)c(O)c3)cc3cc(Cl)ccc32)cc1 [Example 99, 4-[[5-chloro-1-[[4-(1-methylethyl)phenyl]sulfonyl]-1H-indol-2-yl]methyl]-2-hydroxybenzoic acid] | 42% | 989 nM | 50% | 569 nM |
| Cc1ccc(S(=O)(=O)n2c(Cc3ccc(C(=O)O)cc3)cc3cc(C(F)(F)F)ccc32)cc1 [Example 134] | 36% | 552 nM | 50% | 212 nM |
| O=C(O)c1ccc(Cc2cc3cc(C(F)(F)F)ccc3n2S(=O)(=O)c2cccc(Cl)c2)cc1 [Example 143, 4-[[1-[3-chloro-phenylsulfonyl]-5-(trifluoromethyl)-1H-indol-2-yl]methyl]benzoic acid] | 18% | 425 nM | 33% | 339 nM |
| CC(C)(C)c1cccc(S(=O)(=O)n2c(Cc3ccc(C(=O)O)c(F)c3)cc3cc(C(F)(F)F)ccc32)c1 [Example 10, 2-fluoro-4-[[1-[[3-(1,1-dimethylethyl)phenyl]sulfonyl]-5-(trifluoromethyl)-1H-indol-2-yl]methyl]benzoic acid] | 56% | 943 nM | 63% | 406 nM |
| CC(C)(C)c1cccc(S(=O)(=O)n2c(Cc3ccc(C(=O)O)cc3)c(F)c3cc(C(F)(F)F)ccc32)c1 [Example 149, 4-[[1-[[3-(1,1-dimethylethyl)phenyl]sulfonyl]-3-fluoro-5-(trifluoromethyl)-1H-indol-2-yl]methyl]-benzoic acid] | 80% | 225 nM | 98% | 94 nM |
| CC(C)(C)c1cccc(S(=O)(=O)n2c(Cc3cccc(C(=O)O)c3)cc3cc(C(F)(F)F)ccc32)c1 [Example 8, 3-[[1-[[3-(1,1-dimethylethyl)phenyl]sulfonyl]-5-(trifluoromethyl)-1H-indol-2-yl]methyl]benzoic acid] | 74% | 99 nM | 96% | 101 nM |
| CC(C)(C)c1cccc(S(=O)(=O)n2c(Cc3nc(C(=O)O)cs3)cc3cc(C(F)(F)F)ccc32)c1 [Example 89, 2-[[1-[[3-(1,1-dimethylethyl)-phenyl]sulfonyl]-5-trifluoromethyl-1H-indol-2-yl]methyl]-thiazole-4-carboxylic acid] | 62% | 611 nM | 77% | 265 nM |
| CC(C)(C)c1cccc(S(=O)(=O)n2c(Cc3ccc(C(=O)O)c(Cl)c3)cc3cc(C(F)(F)F)ccc32)c1 [Example 206, 4-[[1-[[3-(1,1-dimethylethyl)-phenyl]sulfonyl]-5-trifluoromethyl-1H-indol-2-yl]methyl]-2-chlorobenzoic acid] | 85% | 363 nM | 71% | 174 nM |
| CC(C)(C)c1cccc(S(=O)(=O)n2c(C(=O)c3ccc(C(=O)O)cc3)cc3cc(C(F)(F)F)ccc32)c1 [Example 219] | 32% | 3200 nM | 57% | 1130 nM |
| CC(C)c1ccc(S(=O)(=O)n2c(Cc3ccc(C(=O)O)s3)cc3cc(C(F)(F)F)ccc32)cc1 [Example 71, 5-[[1-[[4-(1-methylethyl)-phenyl]sulfonyl]-5-trifluoromethyl-1H-indol-2-yl]methyl]-thiophene-2-carboxylic acid] | 82% | 95 nM | 61% | 47 nM |
| CC(C)Oc1ccc(S(=O)(=O)n2c(Cc3ccc(C(=O)O)cc3)cc3cc(Cl)ccc32)cc1 [Example 162, 4-[[1-[4-isopropoxy-phenylsulfonyl]-5-(chloro)-1H-indol-2-yl]methyl]benzoic acid] | 40% | 1550 nM | 56% | 692 nM |
| CCc1ccc(S(=O)(=O)n2c(Cc3ccc(C(=O)O)cc3)cc3cc(Cl)ccc32)cc1 [Example 159, 4-[[1-[4-ethyl-phenylsulfonyl]-5-(chloro)-1H-indol-2-yl]methyl]benzoic acid] | 45% | 785 nM | 66% | 319 nM |
| C=C(c1ccc(C(=O)O)cc1)c1cc2cc(Cl)ccc2n1S(=O)(=O)c1ccc(C(C)C)cc1 [Example 102, 4-[1-[1[[4-(1-methylethyl)phenyl]sulfonyl]-5-(chloro)-1H-indol-2-yl]-1-ethenyl]-benzoic acid] | 27% | 676 nM | 49% | 363 nM |
| O=C(O)c1ccc(Cc2cc3cc(C(F)(F)F)ccc3n2S(=O)(=O)c2cccc(-c3ccc(Cl)cc3)c2)cc1 [Example 146, 4-[[1-[4′-chloro-biphenyl-3-sulfonyl]-5-(trifluoromethyl)-1H-indol-2-yl]methyl]benzoic acid] | 24% | 1180 nM | 43% | 619 nM |
| COC(=O)c1ccc(Cc2c(F)c3cc(C(F)(F)F)ccc3n2S(=O)(=O)c2cccc(C(C)(C)C)c2)cc1 [Example 148, 4-[[1-[[3-(1,1-dimethylethyl)phenyl]sulfonyl]-3-fluoro-5-(trifluoromethyl)-1H-indol-2-yl]methyl]-benzoic acid, methyl ester] | 101% | 121 nM | 119% | 62 nM |
| CC(C)(C)c1cccc(S(=O)(=O)n2c(Cc3ccc(C(=O)O)cc3)cc3c(Cl)c(Cl)ccc32)c1 [Example 119, 4-[[1-[[3-(1,1-dimethylethyl)phenyl]sulfonyl]-4-(chloro)-5-(chloro)-1H-indol-2-yl]methyl]benzoic acid] | 82% | 266 nM | 71% | 65 nM |
| O=C(O)c1ccc(Cc2cc3cc(C(F)(F)F)ccc3n2S(=O)(=O)c2cccc(SC(F)F)c2)cc1 [Example 126, 4-[[1-[3-difluoromethylsulfanyl-phenylsulfonyl]-5-(trifluoromethyl)-1H-indol-2-yl]methyl]benzoic acid] | 32% | 141 nM | 44% | 122 nM |
| CC(C)c1ccc(S(=O)(=O)n2c(Cc3ccc(C(=O)O)cc3)cc3cc(C(F)(F)F)ccc32)cc1 [Example 43, 4-[[1-[[4-(1-methylethyl)phenyl]sulfonyl]-5-(trifluoromethyl)-1H-indol-2-yl]methyl]benzoic acid] | 79% | 616 nM | 73% | 291 nM |
| CCCOc1ccc(S(=O)(=O)n2c(Cc3ccc(C(=O)O)cc3)cc3cc(C(F)(F)F)ccc32)cc1 [Example 123, 4-[[1-[4-propoxy-phenylsulfonyl]-5-(trifluoromethyl)-1H-indol-2-yl]methyl]benzoic acid] | 36% | 646 nM | 60% | 217 nM |
